# Assay: Cell viability assay (CellTiter-Glo)
# Type: cell-based
# Details: human; HEK293T, 72 hour treatment; read-out: IC50 cell viability
# Protocol: In 96-well round-bottom plates, sorbitol -synchronized cultures of ring-stage NF54 P. falciparum parasites were established in triplicate and treated with varying concentrations of the inhibitors (25-0.0038 μM) serially diluted in complete medium. Parasite proliferation rates were analyzed after 72 h using the Renilla-Glo Luciferase Assay, and luminescence was measured using the GloMax® Discover Microplate Reader. EC 50 values were obtained from corrected dose-response curves using GraphPad Prism (version 5; GraphPad Software). Data represent the mean % luminescence relative to 5% DMSO-treated (vehicle, 100% growth) and 100 nM chloroquine-treated (no growth) controls.
# In black, clear-bottom 96-well plates (No. 3904 Corning Life Sciences), HEK293T cells were plated at 2x10^5 cells/mL in DMEM high glucose, pyruvate media (ThermoFisher Scientific, cat. 11995073) supplemented with 10% FBS and 1% pen -strep (100 μL final volume). Cells were incubated overnight at 37°C, 5% CO2. Using a Tecan D300e digital dispenser, cells were dosed in triplicate […]
# concentration, 100 mM stock in DMSO) and Carfilzomib (10 µM to 4.6 nM final concentration, 10 mM stock in DMSO) normalizing DMSO to 0.25%. Cells were then incubated at 37 °C, 5% CO2 for 72 hours. Following incubation, cells were treated with 70 µL CellTiter-Glo® Luminescent Cell Viability Assay Reagent (Promega, cat. G7570) and incubated in the dark at room temperature for 30 minutes. Plates were read using an EnVision Multimode Plate Reader (PerkinElmer). Cell viability data was normalized to DMSO controls and analyzed in GraphPad Prism 8 by fitting the data to “[Inhibitor] vs. normalized response – variable slope” model to obtain the curves.
# Each compound was prepared in duplicate at 1 µM final concentration (0.2% DMSO) in human or mouse plasma (Aldrich). […]
# After quenching, samples were centrifuged to pellet precipitated partic ulates and an aliquot of supernatant was diluted 1:1 with water. The resulting solution was analyzed by UPLC -MS/MS with compounds detected by MRM detection on a triple quadrupole mass spectrometer. […]
compound,measurement,value
C=CC(=O)Nc1ccccc1[C@@H](CCc1ccc(OC)c(OC)c1)OC(=O)[C@@H]1CCCCN1C(=O)C(=O)C(C)(C)CC [1c],IC50 at 72 h,75 µM

# — paper PMC7667655, “Targeted Covalent Inhibition of Plasmodium FK506 Binding Protein 35” (ACS Medicinal Chemistry Letters, 2020)
